Measurements published in paper PMC12049818, “Identification of NUV-244 as a PNPLA3 I148M degrading small molecule” (iScience, 2025).

How the values were obtained:
PNPLA3 = molecular target: T1, PNPLA3 (Homo sapiens, UniProt Q9NST1); assay: Huh7 untagged PNPLA3 immunofluorescence on lipid droplets; format: cell-based; settings: anti-PNPLA3 IF; representative curve, Figure 3E
T1 construct: host or cells: Huh7
T1 sequence (Q9NST1 1-481): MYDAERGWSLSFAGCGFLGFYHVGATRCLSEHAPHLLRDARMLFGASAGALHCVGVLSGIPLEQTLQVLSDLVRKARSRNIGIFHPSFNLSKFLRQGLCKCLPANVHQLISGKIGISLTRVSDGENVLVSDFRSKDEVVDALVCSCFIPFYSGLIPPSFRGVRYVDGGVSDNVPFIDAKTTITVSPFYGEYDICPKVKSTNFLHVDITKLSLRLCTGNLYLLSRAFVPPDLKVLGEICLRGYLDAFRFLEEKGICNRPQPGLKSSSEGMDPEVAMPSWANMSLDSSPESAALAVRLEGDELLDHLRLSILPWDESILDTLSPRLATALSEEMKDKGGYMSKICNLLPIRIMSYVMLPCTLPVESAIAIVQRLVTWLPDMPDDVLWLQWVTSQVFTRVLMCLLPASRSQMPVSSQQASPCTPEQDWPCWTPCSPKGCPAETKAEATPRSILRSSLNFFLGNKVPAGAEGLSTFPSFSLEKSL
Protocol: Even though C-terminal tagging is reported not to interfere with PNPLA3 localization,[20] we established an assay to exclude the possibility that C-terminal tagging of PNPLA3 with tagRFP could alter PNPLA3 response to NUV-244 on lipid droplets. For this we generated Huh7 cell lines that express untagged variants of PNPLA3 I148M or PNPLA3 WT and visualized PNPLA3 on lipid droplets by immunofluorescence (Figures 3C, 3D, and S3A).
Cells were fixed with 4% paraformaldehyde for 15 minutes at room temperature. Cells were blocked with 0.2 M glycine, 0.1 mg/mL saponin, and 30 mg/mL bovine serum albumin (BSA) (all Sigma Aldrich) in PBS for 1 hour. Cells were washed 1x with washing buffer (0,1 mg/ml saponin + 1 mg/ml Bovine serum albumin) using a Blue Washer (Blue Cat Bio). Mouse anti-human ADPN (PNPLA3, C-8, #sc-390252, Santa Cruz) and rabbit anti-human PNPLA2 (Sigma Aldrich, #HPA055173-25UL) primary antibodies and appropriate secondary antibodies conjugated with Alexa-Fluor 647 (Jackson ImmunoResearch) were used. […]
Images were acquired by an Opera Phenix confocal spinning disc microscope system (Revvity, Waltham, MA, USA) with a 20x or 40x water objective at 405 nm (Hoechst), 488 nm (BODIPY) and 647 nm. Quantification was carried out with the Harmony (Revvity, Waltham, MA, USA) or MetaXpress software (Molecular Devices). […]

PNPLA3 WT = molecular target: T2, PNPLA3 WT (Homo sapiens, UniProt Q9NST1); assay: nanoDSF thermal shift, PNPLA3 WT protein; format: binding; settings: ligand 25 μM
T2 construct: Full-length wild-type PNPLA3 (Q9NST1), mutant PNPLA3 (I148M), and PNPLA2 (Q96AD5) were cloned into the pVL1393 vector; Flag (N); made in house; host or cells: SF9 insect cells (baculovirus, pVL1393)
T2 sequence (Q9NST1 1-481): T1 sequence (Q9NST1 1-481)
From the text: To investigate the mode of action of NUV-244, we evaluated its direct binding to the PNPLA3 I148M protein using nano differential scanning fluorimetry (nanoDSF). In this assay, compounds that bind to a target protein can lead to thermal stabilization, preventing protein denaturation, which is reflected in a shift of the protein melting curve.
Full-length wild-type PNPLA3 (Q9NST1), mutant PNPLA3 (I148M), and PNPLA2 (Q96AD5) were cloned into the pVL1393 vector with an N-terminal Flag-Tag. Proteins were expressed in SF9 cells infected at a multiplicity of infection (MOI) of 1 for 72 hours. Protein purification was performed using a two-step process. The first step involved affinity purification using M2 anti-Flag agarose beads. This was followed by gel filtration chromatography using a Superdex 200 column. Thermal melting experiments were carried out using a Prometheus NT.48 instrument (NanoTemper Technologies). Proteins were prepared in 20 mM Tris-HCl pH 7.4, 100 mM NaCl, 5 % Glycerol, 2 mM DTT and 0.2 mg/mL was used as a final concentration in 50 μL volume. For binding experiments, ligands were added to the mixture at a final concentration of 25 μM, DMSO was used as control. […] The intrinsic protein fluorescence at 330 and 350 nm was recorded. Data were analysed using Prometheus NT.48 software. Thermal shifts (ΔTm) were calculated, and Z-scores greater than 6 indicated robust stabilization. […]

SMILES: Cc1cccc(Cc2nc(C)c(C(=O)Nc3cc(O)ccc3Cl)s2)c1 [NUV-244]
- EC50 (PNPLA3): 341 nM
- ΔTm PNPLA3 WT (PNPLA3 WT): 7.02 °C
